According to PMC8968952, “Modulation of ERCC1-XPF Heterodimerization Inhibition via Structural Modification of Small Molecule Inhibitor Side-Chains” (Frontiers in Oncology, 2022):

Tested on: HCT-116 cells
Test: Cytotoxicity assay using colony forming assay
Format: cell-based, human
Settings: 0.5 μM
Description: HCT-116 cells were incubated with media containing a non-toxic concentration of 6 or 10 ( Supplementary Figure 3 ) prior to exposure to the DNA damaging agents. […]
nitrocellulose. Proteins were visualized using ERCC1 (A73368-100, 1:1000; EpiGentek), XPF (LS- […]
primary antibodies followed by secondary anti-mouse or anti-rabbit secondary HRP-conjugated secondary antibodies. ECL chemiluminescent substrate (Promega) was used to detect the proteins.
Supplementary Figure 3. Cytotoxicity assay using colony forming assay
4 HCT-116 Derived XPF Knockout Cells
For CRISPR deletion of XPF from HCT-116 cells, the pSpCas9(BB)-2A-GFP (pX458) vector (Addgene plasmid # 48138) was used. The short guide sequence to target XPF exon one was: 5'- […]
- 3' and target XPF exon eight was: 5'-
-3'. All short guide sequences oligonucleotides were synthesized, annealed and cloned into pX458 vector and were confirmed by DNA sequencing at DNA laboratory, University of Calgary. The DNA plasmid (pX458 containing XPF short guide RNA sequence, 5 µg) was transfected into HCT-116 cells using Lipofectamine 2000 (Invitrogen) according to the manufacturer’s instructions. Forty-eight hours after transfection, cells were harvested and genomic DNA was isolated using the KAPA Express Extract Kit (Kapa Biosystems) according to the manufacturer’s instructions. […]

Structure (SMILES): COc1ccc2nc3cc(Cl)ccc3c(Nc3ccc(O)c(CN4CCN(CCN(C(C)C)C(C)C)CC4)c3)c2c1 [Compound 6]
- toxicity of the concentration used (in words): non-toxic
